In patent US20230064983A1 (priority 2020, published 2023):
Values joined by “and” are separate entries in the source; they are usually repeats but may differ in a detail not shown here. Equal entries are not always repeated. Where two headings read alike, the source gives them in different places.

What was measured:
[1] = molecular target: T1, EGFR with insertion SVD between D770 and N771 (mutEGFR D770_N771insSVD) (Homo sapiens, UniProt P00533, DUP768-770); assay: Exon20-Mutant-EGFR(D770_N771insSVD) kinase assay (TR-FRET); format: biochemical; conditions: 2 mM ATP, Table 2
T1 construct: amino acids R669 to A1210; made in house; host or cells: Sf9 insect cells (baculovirus)
T1 sequence (P00533 other isoform, or with tags, fused parts or gaps DUP768-770): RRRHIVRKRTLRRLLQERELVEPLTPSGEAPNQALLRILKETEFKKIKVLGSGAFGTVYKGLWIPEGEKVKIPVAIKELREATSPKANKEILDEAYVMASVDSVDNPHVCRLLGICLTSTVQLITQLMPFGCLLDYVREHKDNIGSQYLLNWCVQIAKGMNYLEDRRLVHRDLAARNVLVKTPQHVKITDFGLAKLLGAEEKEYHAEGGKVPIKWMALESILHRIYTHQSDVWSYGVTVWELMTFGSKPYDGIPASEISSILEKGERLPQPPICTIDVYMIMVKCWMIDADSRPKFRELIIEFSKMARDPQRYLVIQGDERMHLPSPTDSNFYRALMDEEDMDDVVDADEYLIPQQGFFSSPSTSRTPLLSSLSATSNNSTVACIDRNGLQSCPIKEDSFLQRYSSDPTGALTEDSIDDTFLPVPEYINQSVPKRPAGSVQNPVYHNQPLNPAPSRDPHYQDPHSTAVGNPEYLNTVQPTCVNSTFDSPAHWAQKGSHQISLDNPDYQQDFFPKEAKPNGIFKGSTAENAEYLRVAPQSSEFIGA

[2] = molecular target: Ba/F3-EGFR-D770_N771insSVD cells (Homo sapiens, UniProt P00533, DUP768-770, cells depend on it); assay: Ba/F3 cell survival assay, EGFR D770_N771insSVD; format: cell-based
Ba/F3-EGFR-D770_N771insSVD cells, sequence (P00533 with tags, fused parts or gaps DUP768-770): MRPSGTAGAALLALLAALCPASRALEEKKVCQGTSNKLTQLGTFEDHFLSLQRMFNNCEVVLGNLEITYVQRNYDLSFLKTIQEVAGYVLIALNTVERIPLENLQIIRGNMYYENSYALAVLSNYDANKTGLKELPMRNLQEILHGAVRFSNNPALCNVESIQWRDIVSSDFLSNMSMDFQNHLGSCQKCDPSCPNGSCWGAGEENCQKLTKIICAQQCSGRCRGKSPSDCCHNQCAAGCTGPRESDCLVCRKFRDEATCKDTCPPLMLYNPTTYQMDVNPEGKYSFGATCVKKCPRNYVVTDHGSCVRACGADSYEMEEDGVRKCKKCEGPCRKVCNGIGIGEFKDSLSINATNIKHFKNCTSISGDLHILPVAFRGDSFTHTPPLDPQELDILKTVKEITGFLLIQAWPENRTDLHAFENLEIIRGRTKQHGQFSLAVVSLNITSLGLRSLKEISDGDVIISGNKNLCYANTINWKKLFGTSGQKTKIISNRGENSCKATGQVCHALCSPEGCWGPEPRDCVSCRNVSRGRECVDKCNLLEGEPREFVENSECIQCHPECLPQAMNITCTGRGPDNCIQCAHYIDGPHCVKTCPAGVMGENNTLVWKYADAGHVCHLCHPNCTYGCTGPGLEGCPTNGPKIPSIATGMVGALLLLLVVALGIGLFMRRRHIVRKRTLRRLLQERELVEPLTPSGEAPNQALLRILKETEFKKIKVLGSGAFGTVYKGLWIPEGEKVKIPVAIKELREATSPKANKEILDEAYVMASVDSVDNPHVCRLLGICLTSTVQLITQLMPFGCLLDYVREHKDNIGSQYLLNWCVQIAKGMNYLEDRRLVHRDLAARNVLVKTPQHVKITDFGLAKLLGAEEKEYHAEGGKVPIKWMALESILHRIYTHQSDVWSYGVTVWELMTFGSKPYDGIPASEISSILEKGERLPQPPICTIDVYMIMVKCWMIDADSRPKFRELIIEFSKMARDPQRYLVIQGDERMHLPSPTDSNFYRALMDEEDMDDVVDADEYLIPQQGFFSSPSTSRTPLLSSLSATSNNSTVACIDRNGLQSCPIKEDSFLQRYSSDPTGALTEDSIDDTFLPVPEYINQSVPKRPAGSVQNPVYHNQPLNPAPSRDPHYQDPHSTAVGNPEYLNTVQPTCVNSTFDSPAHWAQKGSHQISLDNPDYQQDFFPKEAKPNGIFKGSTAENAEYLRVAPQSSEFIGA

Bub1 = molecular target: T2, Bub1 (Homo sapiens, UniProt O43683); assay: Bub1 high ATP kinase assay (TR-FRET); format: biochemical; conditions: Bub1 high ATP (2 mM) IC50, TR-FRET, 2 mM ATP; Table 3
T2 construct: catalytic domain of human Bub1 (amino acids 704-1085); His6 (N); made in house; host or cells: insect cells (Hi5)
T2 sequence (O43683 704-1085): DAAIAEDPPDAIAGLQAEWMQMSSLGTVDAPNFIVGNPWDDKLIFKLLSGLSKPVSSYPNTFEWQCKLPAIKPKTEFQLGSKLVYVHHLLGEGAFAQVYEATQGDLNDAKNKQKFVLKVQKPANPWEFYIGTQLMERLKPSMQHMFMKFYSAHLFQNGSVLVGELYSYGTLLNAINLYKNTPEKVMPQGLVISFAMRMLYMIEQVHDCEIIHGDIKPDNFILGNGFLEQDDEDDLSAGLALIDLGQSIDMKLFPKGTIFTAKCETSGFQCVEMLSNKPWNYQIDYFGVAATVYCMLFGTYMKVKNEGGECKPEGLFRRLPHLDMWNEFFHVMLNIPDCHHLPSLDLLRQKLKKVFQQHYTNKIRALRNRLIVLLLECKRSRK
Procedure, shortened: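 Enzyme was His6-tagged human Bub1 catalytic domain (aa 704-1085) from Hi5 insect cells, typically about 200 ng/ml, with a biotinylated peptide substrate at high ATP. Reaction ran 60 min at 22 °C, then was stopped with EDTA. Phosphopeptide was detected by TR-FRET (anti-phosphoserine antibody, Eu-labelled anti-mouse IgG, streptavidin-XL665), read as the 665/620 nm emission ratio.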

Ba/F3-EGFR-WT cells = Ba/F3-EGFR-WT cells (Homo sapiens, UniProt P00533); assay: Ba/F3 cell survival assay, wild type EGFR; format: cell-based
Ba/F3-EGFR-WT cells, sequence (P00533 whole entry, looked up, stated change not applied): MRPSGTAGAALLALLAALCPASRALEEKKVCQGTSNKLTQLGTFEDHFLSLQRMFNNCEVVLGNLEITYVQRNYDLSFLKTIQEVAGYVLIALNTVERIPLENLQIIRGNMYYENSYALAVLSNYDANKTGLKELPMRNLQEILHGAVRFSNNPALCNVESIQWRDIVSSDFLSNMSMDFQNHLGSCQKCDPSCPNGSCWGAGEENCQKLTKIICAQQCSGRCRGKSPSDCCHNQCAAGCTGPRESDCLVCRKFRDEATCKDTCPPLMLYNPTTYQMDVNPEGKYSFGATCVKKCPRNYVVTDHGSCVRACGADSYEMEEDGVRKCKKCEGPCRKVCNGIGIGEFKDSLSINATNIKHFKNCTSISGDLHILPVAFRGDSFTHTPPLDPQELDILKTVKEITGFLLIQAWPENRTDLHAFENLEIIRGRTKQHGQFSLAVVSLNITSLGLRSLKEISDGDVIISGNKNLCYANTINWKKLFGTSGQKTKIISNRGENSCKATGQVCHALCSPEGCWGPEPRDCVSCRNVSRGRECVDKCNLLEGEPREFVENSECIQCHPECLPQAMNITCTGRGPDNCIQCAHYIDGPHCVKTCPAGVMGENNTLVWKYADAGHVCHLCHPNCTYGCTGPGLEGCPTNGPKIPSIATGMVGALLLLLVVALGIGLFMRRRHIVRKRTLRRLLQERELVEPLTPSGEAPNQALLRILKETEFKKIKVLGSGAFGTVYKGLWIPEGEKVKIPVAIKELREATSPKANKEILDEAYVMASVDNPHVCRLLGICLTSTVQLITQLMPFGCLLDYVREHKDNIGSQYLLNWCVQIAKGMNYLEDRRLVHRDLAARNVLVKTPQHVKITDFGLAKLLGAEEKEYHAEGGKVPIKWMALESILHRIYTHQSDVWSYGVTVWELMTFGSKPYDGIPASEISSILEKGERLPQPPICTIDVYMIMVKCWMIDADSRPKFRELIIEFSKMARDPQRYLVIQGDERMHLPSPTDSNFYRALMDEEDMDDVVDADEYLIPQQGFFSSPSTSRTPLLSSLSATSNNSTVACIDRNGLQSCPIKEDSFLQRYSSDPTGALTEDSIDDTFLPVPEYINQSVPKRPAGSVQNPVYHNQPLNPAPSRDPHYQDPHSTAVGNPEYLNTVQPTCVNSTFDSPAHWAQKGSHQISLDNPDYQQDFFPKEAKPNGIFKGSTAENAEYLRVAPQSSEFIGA

[3] = Cell Titer-Glo, 48 h, without IL-3; Table 4; read-out: BA/F3 (insSVD) IC50
[4] = Cell Titer-Glo, 48 h, with 10 ng/mL EGF; Table 4; read-out: BA/F3 (wild type) IC50

Compound | mutEGFR (D770_N771insSVD) kinase assay IC50 [1] | IC50 (Bub1) | GI50 [2, 3] | GI50 (Ba/F3-EGFR-WT cells; [4]) | GI50 ([2]; read-out: BA/F3 (insSVD) IC50; Cell Titer-Glo, 48 h, without IL-3; Table 4) | GI50 (Ba/F3-EGFR-WT cells; read-out: BA/F3 (wild type) IC50; Cell Titer-Glo, 48 h, with 10 ng/mL EGF; Table 4)
COc1c(Cl)cccc1Nc1c(-c2ccncc2OCC(C)(C)OC)[nH]c2c1C(=O)NCC2CCO (single isomer, unassigned) [Example 15, 3-(3-chloro-2-methoxyanilino)-7-(2-hydroxyethyl)-2-[3-(2-methoxy-2-methylpropoxy)pyridin-4-yl]-1,5,6,7-tetrahydro-4H-pyrrolo[3,2-c]pyridin-4-one] | 0.158 nM | 1390 nM | 192 nM | 895 nM |  | 
COc1c(Cl)cccc1Nc1c(-c2ccncc2OC[C@@H]2CCCO2)[nH]c2c1C(=O)NC(C(F)(F)F)C2 (single isomer, unassigned) [Example 39] | 18.8 nM | > 20000 nM | 786 nM and > 1000 nM | 4120 nM |  | 
COc1c(Cl)cccc1Nc1c(-c2ccncc2OC[C@@H]2CN(C)CCO2)[nH]c2c1C(=O)N[C@H](C)C2 [Example 11, (6R)-3-(3-chloro-2-methoxyanilino)-6-methyl-2-(3-{[(2S)-4-methylmorpholin-2-yl]methoxy}pyridin-4-yl)-1,5,6,7-tetrahydro-4H-pyrrolo[3,2-c]pyridin-4-one] | 0.179 nM | > 20000 nM | 17.8 nM | 264 nM |  | 
Cc1c(Cl)cccc1Nc1c(-c2ccncc2OC[C@@H]2CCCO2)[nH]c2c1C(=O)N[C@H](C)C2 [Example 104, (6R)-3-(3-chloro-2-methylanilino)-6-methyl-2-(3-{[(2S)-oxolan-2-yl]methoxy}pyridin-4-yl)-1,5,6,7-tetrahydro-4H-pyrrolo[3,2-c]pyridin-4-one] | 0.162 nM | 3630 nM |  |  | 32.3 nM | 983 nM
COc1c(Cl)cccc1Nc1c(-c2ccncc2OCC2COCCO2)[nH]c2c1C(=O)NCC2C (centres unmarked) [Example 33, 3-(3-chloro-2-methoxy-anilino)-2-[3-(1,4-dioxan-2-ylmethoxy)-4-pyridyl]-7-methyl-1,5,6,7-tetrahydropyrrolo[3,2-c]pyridin-4-one] | 0.201 nM | 5160 nM | 73.1 nM | 844 nM |  | 
COc1c(Cl)cccc1Nc1c(-c2ccncc2OC[C@@H]2CCCO2)[nH]c2c1C(=O)NCC2CCO (single isomer, unassigned) [Example 18] | 0.113 nM | 19200 nM and > 20000 nM | 26.4 nM | 362 nM |  | 
COc1c(Cl)cccc1Nc1c(-c2ccncc2OCC2(C)CCO2)[nH]c2c1C(=O)NCC2CCO (single isomer, unassigned) [Example 20, 3-(3-chloro-2-methoxyanilino)-7-(2-hydroxyethyl)-2-{3-[(2-methyloxetan-2-yl)methoxy]pyridin-4-yl}-1,5,6,7-tetrahydro-4H-pyrrolo[3,2-c]pyridin-4-one] | 0.316 nM | 17200 nM | 122 nM | 1170 nM |  | 
COc1c(Cl)cccc1Nc1c(-c2ccncc2OCCC2CCCCO2)[nH]c2c1C(=O)N[C@H](C)C2 (stereo partly drawn) [Example 86, (6R)-3-(3-chloro-2-methoxy-anilino)-6-methyl-2-[3-(2-tetrahydropyran-2-ylethoxy)-4-pyridyl]-1,5,6,7-tetrahydropyrrolo[3,2-c]pyridin-4-one] | 0.261 nM | 2400 nM | 19.3 nM | 480 nM |  | 

Now from value to compound, other results behind:

mutEGFR (D770_N771insSVD) kinase assay IC50 [1] | IC50 (Bub1) | Compound | GI50 [2, 3] | GI50 (Ba/F3-EGFR-WT cells; [4]) | GI50 ([2]; read-out: BA/F3 (insSVD) IC50; Cell Titer-Glo, 48 h, without IL-3; Table 4) | GI50 (Ba/F3-EGFR-WT cells; read-out: BA/F3 (wild type) IC50; Cell Titer-Glo, 48 h, with 10 ng/mL EGF; Table 4)
0.315 nM | 479 nM | COc1c(Cl)cccc1Nc1c(-c2ccncc2OCC2COCCO2)[nH]c2c1C(=O)NC1(CCC1)C2 (single isomer, unassigned) [Example 124, 3-(3-chloro-2-methoxy-anilino)-2-[3-(1,4-dioxan-2-ylmethoxy)-4-pyridyl]spiro[5,7-dihydro-1H-pyrrolo[3,2-c]pyridine-6,1′-cyclobutane]-4-one] | 26 nM | 513 nM |  | 
0.246 nM | 281 nM | COc1c(Cl)cccc1Nc1c(-c2ccncc2OC[C@@H]2CCCO2)[nH]c2c1C(=O)N[C@H]1CCC[C@@H]21 [Example 57, (5aS,8aR)-3-(3-chloro-2-methoxyanilino)-2-(3-{[(2S)-oxolan-2-yl]methoxy}pyridin-4-yl)-5,5a,6,7,8,8a-hexahydrocyclopenta[b]pyrrolo[2,3-d]pyridin-4(1)-one] | 195 nM | 1710 nM |  | 
0.257 nM | 1310 nM | COc1c(Cl)cccc1Nc1c(-c2ccncc2OCC2COC(C)(C)CO2)[nH]c2c1C(=O)NC1(CCC1)C2 (centres unmarked) [Example 129, 3′-(3-chloro-2-methoxyanilino)-2′-{3-[(5,5-dimethyl-1,4-dioxan-2-yl)methoxy]pyridin-4-yl}-1′,7′-dihydrospiro[cyclobutane-1,6′-pyrrolo[3,2-c]pyridin]-4′(5′H)-one] | 14 nM | 293 nM |  | 
0.455 nM | 17300 nM and > 20000 nM | COc1c(Cl)cccc1Nc1c(-c2ccncc2OCC2COC(C)(C)CO2)[nH]c2c1C(=O)N[C@H](C)C2 (single isomer, unassigned) [Example 79] | 151 nM | 1910 nM |  | 
0.131 nM | 2670 nM | COc1c(Cl)cccc1Nc1c(-c2ccncc2OCC(C)OC)[nH]c2c1C(=O)N[C@H](C)C2 (mixture of isomers) [Example 80, (6R)-3-(3-chloro-2-methoxy-anilino)-2-[3-(2-methoxypropoxy)-4-pyridyl]-6-methyl-1,5,6,7-tetrahydropyrrolo[3,2-c]pyridin-4-one] | 19.9 nM | 628 nM |  | 
0.178 nM | 17000 nM | COCC(C)Oc1cnccc1-c1[nH]c2c(c1Nc1cccc(Cl)c1OC)C(=O)N[C@H](C)C2 (mixture of isomers) [Example 41, (6R)-3-(3-chloro-2-methoxy-anilino)-2-{3-[(1-methoxypropan-2-yl)oxy]-4-pyridyl}-6-methyl-1,5,6,7-tetrahydropyrrolo[3,2-c]pyridin-4-one] | 39.8 nM | 479 nM |  | 
0.525 nM | 954 nM | COc1c(Cl)cccc1Nc1c(-c2ccncc2OC[C@@H]2CCCO2)[nH]c2c1C(=O)NCC2CCC(F)(F)F (single isomer, unassigned) [Example 98] | 18.1 nM | 444 nM |  | 
0.667 nM | 7600 nM | COc1c(Cl)cccc1Nc1c(-c2ccncc2OCC2CCCCO2)[nH]c2c1C(=O)NCC2C (single isomer, unassigned) [Example 47, 3-(3-chloro-2-methoxy-anilino)-7-methyl-2-[3-(tetrahydropyran-2-ylmethoxy)-4-pyridyl]-1,5,6,7-tetrahydropyrrolo[3,2-c]pyridin-4-one] | 106 nM | 1990 nM |  | 
0.269 nM | 1730 nM | Cc1c(Cl)cccc1Nc1c(-c2ccncc2OCC2COCCO2)[nH]c2c1C(=O)NCC2C (single isomer, unassigned) [Example 69, 3-(3-chloro-2-methyl-anilino)-2-[3-(1,4-dioxan-2-ylmethoxy)-4-pyridyl]-7-methyl-1,5,6,7-tetrahydropyrrolo[3,2-c]pyridin-4-one] | 72.4 nM | 2180 nM |  | 
0.341 nM | 1650 nM | COc1c(Cl)cccc1Nc1c(-c2ccncc2OCC2COC(C)(C)CO2)[nH]c2c1C(=O)NC1(CC1)C2 (single isomer, unassigned) [Example 133, 3′-(3-chloro-2-methoxyanilino)-2′-(3-{[5,5-dimethyl-1,4-dioxan-2-yl]methoxy}pyridin-4-yl)-1′,7′-dihydrospiro[cyclopropane-1,6′-pyrrolo[3,2-c]pyridin]-4′(5′H)-one] | 22.2 nM | 484 nM |  | 
0.142 nM | 10000 nM | COc1c(Cl)cccc1Nc1c(-c2ccncc2OCC2COCCO2)[nH]c2c1C(=O)N[C@@H]1CCC[C@H]21 (mixture of isomers) [Example 52, (5aR,8aS)-3-(3-chloro-2-methoxyanilino)-2-{3-[(1,4-dioxan-2-yl)methoxy]-4-pyridyl}-5,5a,6,7,8,8a-hexahydrocyclopenta[b]pyrrolo[2,3-d]pyridin-4(1)-one] | 38.9 nM | 407 nM |  | 
0.179 nM | 1160 nM | COc1c(Cl)cccc1Nc1c(-c2ccncc2OCC2COC(C)(C)CO2)[nH]c2c1C(=O)NC1(CC1)C2 (single isomer, unassigned) [Example 134, 3′-(3-chloro-2-methoxyanilino)-2′-(3-{[5,5-dimethyl-1,4-dioxan-2-yl]methoxy}pyridin-4-yl)-1′,7′-dihydrospiro[cyclopropane-1,6′-pyrrolo[3,2-c]pyridin]-4′(5′H)-one] | 92.8 nM | 718 nM |  | 
